Assay results as given in US11439709B2, “Phospholipid ether analogs as cancer-targeting drug vehicles” (Cellectar Biosciences, Inc., priority 2014, dated 2022).
Values belong to the compound of their own block, whether it stands above or below them.

Columns and labels:
[1] = tested on: cancer cell lines (renal, ovarian, pancreatic, melanoma, and prostate); assay: Uptake of CLR1501 by cancer cell lines versus normal fibroblasts (confocal microscopy); type: cell-based; details: 24 hours; five cancer cell lines (renal, ovarian, pancreatic, melanoma, prostate) vs normal human skin fibroblasts; 5 or 7.5 μM
Description: Human cancer cell lines were purchased from the American Type Culture Collection (ATCC). They included the following: Caki-2 (renal; clear cell carcinoma), HCT-116 (colorectal carcinoma); MES-SA/Dx5 (uterine sarcoma) [all maintained in McCoy's 5a medium supplemented with 10% fetal bovine serum (FBS)], Ovcar-3 (ovarian adenocarcinoma) [maintained in RPMI medium supplemented with 20% FBS], U87-MG (glioma) [maintained in minimum essential medium supplemented with 10% FBS], Mia Paca-2 (pancreatic carcinoma) (maintained in Dulbecco's modified Eagle's medium supplemented with 10% FBS), PC-3 (prostate carcinoma) (maintained in F-12K medium supplemented with 10% FBS), MDA-MB-231 (triple-negative mammary gland adenocarcinoma) (maintained in Leibovitz's medium supplemented with 10% FBS), and A549 (non-small cell lung carcinoma) (maintained in F-12 medium supplemented with 10% FBS). Normal human skin fibroblasts were purchased from ATCC and grown in Fibroblast Basal Medium PCS-201-030 supplemented with serum-free kit (Fibroblast Growth. Kit-Serum-Free PCS-201-040). […]
All cells were maintained at 37° C. in appropriate medium supplemented with 10% FBS and 5% CO2. […] The emission signal of CLRI 50 I was detected using Alexa Fluor 488 filters (ex/em 480/520 nm).

[2] = tested on: human glioblastoma stemlike cells and serum-cultured human glioblastoma cells; details: Weichert J. P., et al. (2014), FIG. 2; cited from earlier work
[3] = tested on: xenograft, orthotopic and transgenic cancer and cancer stem cell derived animal models; assay: Tumor selectivity of radioiodinated CLR1404 across animal tumor models (overall count); type: in vivo; details: transgenic and spontaneous rodent models
Description: All described animal studies were performed according to animal protocols approved by the Institutional Animal Care and Use Committee. Female athymic nude mice (Hsd:Athymic Nude-Foxnlnu or Crl:NU-Foxn1nu, Charles River Laboratories) about 4 to 5 weeks of age, 16 to 18 g (n=6), were used for human tumor xenograft studies. Mice were anesthetized with isoflurane and injected subcutaneously with viable tumor cells in 100 μl of Dulbecco's PBS (or, for glioma cells, […] of PBS) into the right flank. Inoculum sizes were 1×10^6 (for renal, ovarian, glioma, pancreatic, prostate, and NSCLC models), 2×10^6 (for colorectal and uterine models), or 3×10^6 (breast).
Radioiodinated ^124l-LR1404 was tested. in subcutaneous and orthotopic xenografts of 60 different spontaneous, transgenic, human, and rodent malignant cell lines and tumor types. […] Representative examples are of both human (FIG. 5A-5l) and rodent (FIG. 5J-M) tumors.

[4] = tested on: human RL-251 tumor xenograft; assay: Prolonged retention of 131I-CLR1404 by RL-251 tumor xenograft; type: in vivo, SCID mouse; details: See FIG. 3
Description: FIG. 3. Prolonged retention of ^131ICLR1404 by human RL-251 tumor xenograft in SCIO mouse.

[5] = tested on: non-small cell lung carcinoma (NSCLC) tumors; assay: Clinical evaluation of 131I-CLR1404 in NSCLC patients (gamma imaging); type: in vivo, human; details: two patients with advanced NSCLC; injection of <1 mCi 131I-CLR1404
Description: To date, two patients with advanced NSCLC were imaged after an injection of <1 mCi of ^131I-CLR1404. Blood and urine samples were collected at predetermined times, and gamma imaging performed at several time points following administration.
Materials and Methods: Following intravenous injection of iodine-131 labeled CLR1404 (1 mCi/20 μg), patients with advanced NSCLC where scanned at 3, 6, 24, 48, 96 h and at 7 and 11 days on a GE Maxxus dual Head SPECT scanner. Blood and urine samples were collected for pharmacokinetic analysis as well as clinical hematologic, renal, and hepatic bioanalysis.

C6 glioma = assay: Rat C6 glioma model, NM404 imaging and tissue distribution; type: in vivo; details: for Tumor to brain ratio: C6 glioma-bearing rats
Description: Materials and Methods: All animals were housed and handled in accordance with the University of Wisconsin Research Animal Resources Center guidelines. Rat C6 glioma cells were propagated in DMEM medium (Life Technologies, Gaithersburg, Md.) supplemented with 10% heat-inactivated FBS (Bio Whittaker, Walkersville, Md.), 100 U/ml penicillin G, […] streptomycin, and 0.01 M HEPES (Life Technologies, Gaithersburg, Md.). Intracranial tumor implantation was performed as described previously. Cohen J D, et al., Intracranial C6 glioma model in adult Wistar-Furth rats. J Neuro Oncol 1990 8(1):95-6. Briefly, 1×10^6 C6 cells were resuspended in […] 1.2% methylcellulose and injected into the frontal lobes of anesthetized female Wistar rats (Harlan, Indianapolis, Ind.). Sham-operated animals received intracranial injections of an equal volume of methylcellulose without tumor cells.
Imaging Studies: Ten days after implantation, the presence of intracranial tumors was confirmed with MM. Briefly, anesthetized rats (6) received 2 ml of Gadodiamide (Gd, Omniscan 287 mg/ml, Nycomed, Princeton, N.J.) intraperitoneally and imaged 10 min later using a 1.5 Tesla clinical MR system (GE Signa LX) and a GE phased array extremity coil. The Tl-weighted (TR=500 ms, TE=I6.5 ms) multislice sequences covering the entire brain of each rat were inspected to select tumor-bearing rats with varying tumor sizes, and sham-operated rats for NM404 injections.
NM404 [18-(4-iodophenyl)-octadecylphosphocholine] (100 mg) was radioiodinated with ^125l via isotope exchange with Na^125I in a melt of pivalic acid. Weichert, et al. Int J Appl Rad Isotopes 1986; 37:907-913. NM404 has the same chemical structure as CLR1404 except that it is radioiodinated with ^125l instead of ^124l or ^131l. Following HPLC purification NM404 was dissolved in an aqueous 2% Polysorbate 20 solution prior to tail vein injection (5: −20 μCi/200 g rat) into four tumor-bearing and three sham-operated rats. At 1 (n=1), 2 (n=1), and 4 (n=2) days after NM404 injection, animals were euthanized (CO2) and brains were excised and imaged on a modified Bioscan AR2000 radio-TLC scanner (1 mm increments at 2 min acquisition/lane and 1 mm high-resolution collimator). In addition, normal brain, blood, kidney, liver, spleen, thyroid, and tumor tissues were weighed, and radioactivity counted in a gamma counter. The tissue distribution of radioactivity was then correlated to brain histology.

PC-3 cells = assay: Uptake of 125I-CLR1404 by PC-3 cells after lipid raft disruption with filipin III; type: cell-based; details: PC-3 cells pretreated with 2 μg/ml filipin III 15 min, then 125I-CLR1404 for 1 h; compared to untreated control cells
Description: PC-3 cells were pretreated with either 2 μg/ml filipin III or vehicle for 15 min, then washed and incubated with 2 μCi of ^125I-CLR1404 for 1 h. The media was removed and the cells were washed with phosphate buffered saline containing 0.1% bovine serum albumin, trypsinized, then split into two samples for determination of cell number by DNA content (A280 compared to a cell line specific standard curve) and counts per minute using a Gamma Counter (Perkin Elmer).

SMILES: C[N+](C)(C)CCOP(=O)([O-])OCCCCCCCCCCCCCCCCCCc1ccc(C2=C3C=CC=[N+]3[B-](F)(F)n3cccc32)cc1 [CLR1501]
preferential uptake in cancer cell lines compared to normal fibroblasts [1]: five to nine
uptake compared to normal human astrocytes and fetal human neural stem cells [2]: enhanced uptake

models showing tumor selectivity / selective and prolonged tumor retention [3]: 55/60
time remaining in cancer cells [4]: up to 20 days
tumor uptake and retention in the primary lung tumor [5]: significant tumor uptake and retention
SMILES: C[N+](C)(C)CCOP(=O)([O-])OCCCCCCCCCCCCCCCCCCc1ccc(I)cc1 [CLR1404, 18-(4-iodophenyl)-octadecylphosphocholine]

Tumor to brain ratio (C6 glioma; 48 h after tail vein injection): 12.2
Tumor to brain ratio (C6 glioma; 96 h after tail vein injection): 6.7
Radioactivity in normal brain tissue (C6 glioma; sham operated control animals): minimal
SMILES: C[N+](C)(C)CCOP(=O)([O-])OCCCCCCCCCCCCCCCCCCc1ccc(I)cc1 [NM404, 18-(4-iodophenyl)-octadecylphosphocholine]
uptake and retention in gliomas (imaging) (C6 glioma; gliomas ranging from 3-5 mm in diameter): striking uptake and prolonged retention in all gliomas
less uptake after disruption of lipid rafts (PC-3 cells): ~40%
